Assay results reported in patent US4178442A, “Novel cinnamoyles piperazines and homopiperazines, the method of preparing them and their application in therapeutics” (Delalande S. A., priority 1977, dated 1979).
Where two headings read alike, the source gives them in different places.

System: anaesthetized dog
Experiment: Antiangorous activity on anaesthetized dog: consumption of oxygen in the left ventricule and cardiac effort (KATZ's index)
Assay type: in vivo
Conditions: for inhibition in vivo at 2.5 mg/kg / inhibition in vivo at […] / inhibition in vivo at 10 mg/kg / inhibition in vivo at 0.625 mg/kg / inhibition in vivo at 1.25 mg/kg: Canis lupus familiaris, iv; for inhibition in vivo at […]: 0.15 mg/kg i.v. slow perfusion
Experimental: The antiangorous activity was tested on an anaesthetized dog (sodium pentobarbital 30 mg/kg/i.v.).
The consumption of oxygen in the left ventricule was estimated by the product of the coronary venous flow and the coronary arteriovenous difference in oxygen (% volume).
The coronary venous flow was measured at the coronary venous sinus by means of a modified Morawitz cannula, introduced under radioscopic control.
The cardiac effort was estimated according to KATZ's index, by the product of the average arterial pressure and the cardiac frequency.
The cardiac frequency was estimated from the electrocardiogram recorded with D2 derivation.
It should be noted that the compounds tested were injected intravenously with slow perfusion.

[1] = 2.5 mg/kg i.v. slow perfusion, read-out: Diminution in consumption of O2
[2] = 2.5 mg/kg i.v. slow perfusion, read-out: Diminution in the cardiac effort (IK)
[3] = read-out: Diminution in consumption of O2
[4] = read-out: Diminution in the cardiac effort (IK)
[5] = 0.625 mg/kg i.v. slow perfusion
[6] = 0.625 mg/kg i.v. slow perfusion, read-out: Diminution in consumption of O2
[7] = 0.625 mg/kg i.v. slow perfusion, read-out: Diminution in the cardiac effort (IK)
[8] = 1.25 mg/kg i.v. slow perfusion, read-out: Diminution in consumption of O2
[9] = 1.25 mg/kg i.v. slow perfusion, read-out: Diminution in the cardiac effort (IK)

SMILES | Diminution in consumption of O2: in time (2.5 mg/kg i.v. slow perfusion) [min] | Diminution in the cardiac effort (IK): in time (2.5 mg/kg i.v. slow perfusion) [min] | inhibition in vivo at 2.5 mg/kg [1] [%] | inhibition in vivo at 2.5 mg/kg [2] [%] | also measured
CNC(=O)Nc1cc(OC)c(OCC(O)CN2CCN(C(=O)/C=C/c3cc(OC)c(OC)c(OC)c3)CC2)c(OC)c1 (stereo not drawn) [780 357] | 15 | 15 | 43 | 21 | 
COc1cc(/C=C/C(=O)N2CCN(CC(O)CSc3ccc(C(C)=O)c4c3OCCO4)CC2)cc(OC)c1OC (stereo not drawn) [780 384] |  |  |  |  | inhibition in vivo at […] [3]: 43%; inhibition in vivo at […] [4]: 25%
COc1cc(/C=C/C(=O)N2CCN(CC(O)COc3ccc(NC(=O)N4CCOCC4)c4c3OCCO4)CC2)cc(OC)c1OC (stereo not drawn) [771 149] |  |  |  |  | inhibition in vivo at […] [3]: 12%; inhibition in vivo at […] [4]: 14%
CCCCc1oc2ccccc2c1C(=O)c1cc(I)c(OCCN(CC)CC)c(I)c1 [AMIODARONE, reference compound] |  |  |  |  | Diminution in consumption of O2: in time (10 mg/kg i.v. slow perfusion): 15 min; Diminution in the cardiac effort (IK): in time (10 mg/kg i.v. slow perfusion): 15 min; inhibition in vivo at 10 mg/kg (10 mg/kg i.v. slow perfusion, read-out: Diminution in consumption of O2): 11%; inhibition in vivo at 10 mg/kg (10 mg/kg i.v. slow perfusion, read-out: Diminution in the cardiac effort (IK)): 22%
COc1cc(/C=C/C(=O)N2CCN(CC(O)COc3c(OC)cc(C(C)=O)cc3OC)CC2)cc(OC)c1OC (stereo not drawn) [780 359] |  |  |  |  | Diminution in consumption of O2: in time [5]: 45 min; Diminution in the cardiac effort (IK): in time [5]: 30 min; inhibition in vivo at 0.625 mg/kg [6]: 60%; inhibition in vivo at 0.625 mg/kg [7]: 32%
CCOC(=O)c1cc(OC)c(OCC(O)CN2CCN(C(=O)/C=C/c3cc(OC)c(OC)c(OC)c3)CC2)c(OC)c1 (stereo not drawn) [780 361] | 30 | 45 | 68 | 38 | 
CCCc1ccc(OCC(O)CN2CCN(C(=O)/C=C/c3cc(OC)c(OC)c(OC)c3)CC2)cc1 (stereo not drawn) [780 267] | 30 |  | 27 | 8 | 
COc1cc(/C=C/C(=O)N2CCCN(CC(O)COc3ccc(NC(C)=O)c4c3OCCO4)CC2)cc(OC)c1OC (stereo not drawn) [780 272] | 90 | 90 | 40 | 51 | 
CCCCCOC(=O)c1ccc(OCC(O)CN2CCN(C(=O)/C=C/c3cc(OC)c(OC)c(OC)c3)CC2)c2c1OCCO2 (stereo not drawn) [780 301] |  |  |  |  | inhibition in vivo at […] [3]: 40%; inhibition in vivo at […] [4]: 28%
CNC(=O)Nc1ccc(OCC(O)CN2CCCN(C(=O)/C=C/c3cc(OC)c(OC)c(OC)c3)CC2)c2c1OCCO2 (stereo not drawn) [780 374] | 30 | 15 | 39 | 31 | 
COc1cc(C(C)=O)ccc1OCC(O)CN1CCCN(C(=O)/C=C/c2cc(OC)c(OC)c(OC)c2)CC1 (stereo not drawn) [780 269] | 30 | 60 | 34 | 40 | 
COc1cc(/C=C/C(=O)N2CCN(CC(O)COc3ccc(C(=O)OC(C)(C)C)c4c3OCCO4)CC2)cc(OC)c1OC (stereo not drawn) [780 369] |  |  |  |  | Diminution in consumption of O2: in time [5]: 15 min; Diminution in the cardiac effort (IK): in time [5]: 15 min; inhibition in vivo at 0.625 mg/kg [6]: 37%; inhibition in vivo at 0.625 mg/kg [7]: 4%
COc1cc(/C=C/C(=O)N2CCN(CC(O)COc3ccc(C(=O)OC(C)C)c4c3OCCO4)CC2)cc(OC)c1OC (stereo not drawn) [780 373] | 30 | 30 | 66 | 25 | 
COc1cc(/C=C/C(=O)N2CCN(CC(O)COc3ccc(NC(C)=O)c4c3CCC4)CC2)cc(OC)c1OC (stereo not drawn) [771 306] |  |  |  |  | Diminution in consumption of O2: in time (1.25 mg/kg i.v. slow perfusion): 15 min; Diminution in the cardiac effort (IK): in time (1.25 mg/kg i.v. slow perfusion): 30 min; inhibition in vivo at 1.25 mg/kg [8]: 58%; inhibition in vivo at 1.25 mg/kg [9]: 38%
COc1cc(C#N)ccc1OCC(O)CN1CCN(C(=O)/C=C/c2cc(OC)c(OC)c(OC)c2)CC1 (stereo not drawn) [771 281] | 30 | 30 | 23 | 44 | 
COc1cc(/C=C/C(=O)N2CCN(CC(O)CSc3cccc4c3OCCO4)CC2)cc(OC)c1OC (stereo not drawn) [780 389] | 15 | 30 | 32 | 15 | 
COc1cc(/C=C/C(=O)N2CCN(CC(O)COc3ccc(C(C)=O)c4ccccc34)CC2)cc(OC)c1OC (stereo not drawn) [771 315] |  |  |  |  | Diminution in the cardiac effort (IK): in time (1.25 mg/kg i.v. slow perfusion): 15 min; inhibition in vivo at 1.25 mg/kg [8]: 11%; inhibition in vivo at 1.25 mg/kg [9]: 29%
CNC(=O)Nc1ccc(OCC(O)CN2CCN(C(=O)/C=C/c3cc(OC)c(OC)c(OC)c3)CC2)c2c1OCCCO2 (stereo not drawn) [780 456] |  |  |  |  | Diminution in consumption of O2: in time [5]: 15 min; Diminution in the cardiac effort (IK): in time [5]: 30 min; inhibition in vivo at 0.625 mg/kg [6]: 13%; inhibition in vivo at 0.625 mg/kg [7]: 32%
COc1ccc(NC(=O)Nc2ccc(OCC(O)CN3CCN(C(=O)/C=C/c4cc(OC)c(OC)c(OC)c4)CC3)c3c2OCCO3)cc1 (stereo not drawn) [780 223] | 90 | 90 | 62 | 35 | 
COc1cc(/C=C/C(=O)N2CCN(CC(O)COc3ccc(C(=O)c4ccccc4)cc3)CC2)cc(OC)c1OC (stereo not drawn) [771 318] | 60 | 15 | 63 | 31 | 
CNC(=O)c1ccc(OCCCN2CCN(C(=O)/C=C/c3cc(OC)c(OC)c(OC)c3)CC2)c2c1OCCO2 [771 163] |  |  |  |  | Diminution in consumption of O2: in time [5]: 30 min; Diminution in the cardiac effort (IK): in time [5]: 40 min; inhibition in vivo at 0.625 mg/kg [6]: 61%; inhibition in vivo at 0.625 mg/kg [7]: 20%
CNC(=O)Nc1ccc(OCC(O)CN2CCN(C(=O)/C=C/c3cc(OC)c(OC)c(OC)c3)CC2)c2c1CCC2 (stereo not drawn) [771 153] | 23 | 40 | 31 | 63 | 
COc1cc(/C=C/C(=O)N2CCN(CC(O)COc3ccc(C(C)=O)cc3F)CC2)cc(OC)c1OC (stereo not drawn) [780 353] | 15 | 15 | 46 | 16 | 
CNC(=O)Nc1ccc(OCC(O)CN2CCN(C(=O)/C=C/c3cc(OC)c(OC)c(OC)c3)CC2)c(Cl)c1 (stereo not drawn) [780 189] | 30 | 45 | 63 | 30 | 
COc1cc(/C=C/C(=O)N2CCN(CC(O)COc3ccc(Cl)cc3C)CC2)cc(OC)c1OC (stereo not drawn) [770 966] |  | 30 | 7 | 46 | 
CCCC(=O)c1ccc(OCC(O)CN2CCN(C(=O)/C=C/c3cc(OC)c(OC)c(OC)c3)CC2)cc1 (stereo not drawn) [780 302] | 30 | 30 | 46 | 14 | 
COc1cc(/C=C/C(=O)N2CCN(CC(O)COc3ccc(NC(C)=O)c4c3OCO4)CC2)cc(OC)c1OC (stereo not drawn) [780 346] |  |  |  |  | inhibition in vivo at […] [3]: 43%; inhibition in vivo at […] [4]: 2%
COc1cc(/C=C/C(=O)N2CCN(CCCOc3ccc(NC(C)=O)c4c3OCCO4)CC2)cc(OC)c1OC [771 172] | 15 | 23 | 25 | 29 | 
COc1cc(/C=C/C(=O)N2CCN(CC(O)COc3ccc(OC)c4c3OCCO4)CC2)cc(OC)c1OC (stereo not drawn) [780 009] |  |  |  |  | Diminution in consumption of O2: in time (1.25 mg/kg i.v. slow perfusion): 35 min; Diminution in the cardiac effort (IK): in time (1.25 mg/kg i.v. slow perfusion): 30 min; inhibition in vivo at 1.25 mg/kg [8]: 48%; inhibition in vivo at 1.25 mg/kg [9]: 20%
